Laboratory results published in ChEMBL document CHEMBL5303573, “Mapping human microbiome drug metabolism by gut bacteria and their genes” (Nature, 2019).

Experiment: The drug is tested on Bacteroides caccae strain: ATCC43185 for biotransformation. The drug concentrations were measured before and after a 12-h incubation by liquid-chromatography-coupled mass spectrometry (LC–MS)
Conditions: 2 µM

| Structure (SMILES) | Bacterial Biotransformation |
| --- | --- |
| CN(C)C(=O)C(CCN1CCC(O)(c2ccc(Cl)cc2)CC1)(c1ccccc1)c1ccccc1 [LOPERAMIDE] | Compound NOT metabolized |

Experiment: The drug is tested on Bacteroides fragilis strain: HMW610 for biotransformation. The drug concentrations were measured before and after a 12-h incubation by liquid-chromatography-coupled mass spectrometry (LC–MS)
Conditions: 2 µM

| Structure (SMILES) | Bacterial Biotransformation |
| --- | --- |
| CCCCC(=O)O[C@]1(C(=O)CO)[C@@H](C)C[C@H]2[C@@H]3CCC4=CC(=O)C=C[C@]4(C)[C@@]3(F)[C@@H](O)C[C@@]21C [BETAMETHASONE VALERATE] | Compound metabolized |
| CN(C)C(=O)C(CCN1CCC(O)(c2ccc(Cl)cc2)CC1)(c1ccccc1)c1ccccc1 [LOPERAMIDE] | Compound metabolized |

Experiment: The drug is tested on Bacteroides fragilis strain: HMW615 for biotransformation. The drug concentrations were measured before and after a 12-h incubation by liquid-chromatography-coupled mass spectrometry (LC–MS)
Conditions: 2 µM

| Structure (SMILES) | Bacterial Biotransformation |
| --- | --- |
| CCCCC(=O)O[C@]1(C(=O)CO)[C@@H](C)C[C@H]2[C@@H]3CCC4=CC(=O)C=C[C@]4(C)[C@@]3(F)[C@@H](O)C[C@@]21C [BETAMETHASONE VALERATE] | Compound metabolized |
| CN(C)C(=O)C(CCN1CCC(O)(c2ccc(Cl)cc2)CC1)(c1ccccc1)c1ccccc1 [LOPERAMIDE] | Compound NOT metabolized |

Experiment: The drug is tested on Bacteroides pectinophilus strain: ATCC43243 for biotransformation. The drug concentrations were measured before and after a 12-h incubation by liquid-chromatography-coupled mass spectrometry (LC–MS)
Conditions: 2 µM

| Structure (SMILES) | Bacterial Biotransformation |
| --- | --- |
| CCCCC(=O)O[C@]1(C(=O)CO)[C@@H](C)C[C@H]2[C@@H]3CCC4=CC(=O)C=C[C@]4(C)[C@@]3(F)[C@@H](O)C[C@@]21C [BETAMETHASONE VALERATE] | Compound NOT metabolized |
| CN(C)C(=O)C(CCN1CCC(O)(c2ccc(Cl)cc2)CC1)(c1ccccc1)c1ccccc1 [LOPERAMIDE] | Compound NOT metabolized |

Experiment: The drug is tested on Odoribacter splanchnicus strain: fecal isolate for biotransformation. The drug concentrations were measured before and after a 12-h incubation by liquid-chromatography-coupled mass spectrometry (LC–MS)
Conditions: 2 µM

| Structure (SMILES) | Bacterial Biotransformation |
| --- | --- |
| CCCCC(=O)O[C@]1(C(=O)CO)[C@@H](C)C[C@H]2[C@@H]3CCC4=CC(=O)C=C[C@]4(C)[C@@]3(F)[C@@H](O)C[C@@]21C [BETAMETHASONE VALERATE] | Compound metabolized |
| CN(C)C(=O)C(CCN1CCC(O)(c2ccc(Cl)cc2)CC1)(c1ccccc1)c1ccccc1 [LOPERAMIDE] | Compound metabolized |

Experiment: The drug is tested on Anaerococcus hydrogenalis strain: DSM7454 for biotransformation. The drug concentrations were measured before and after a 12-h incubation by liquid-chromatography-coupled mass spectrometry (LC–MS)
Conditions: 2 µM

| Structure (SMILES) | Bacterial Biotransformation |
| --- | --- |
| CCCCC(=O)O[C@]1(C(=O)CO)[C@@H](C)C[C@H]2[C@@H]3CCC4=CC(=O)C=C[C@]4(C)[C@@]3(F)[C@@H](O)C[C@@]21C [BETAMETHASONE VALERATE] | Compound NOT metabolized |
| CN(C)C(=O)C(CCN1CCC(O)(c2ccc(Cl)cc2)CC1)(c1ccccc1)c1ccccc1 [LOPERAMIDE] | Compound NOT metabolized |

Experiment: The drug is tested on Blautia luti strain: DSM14534 for biotransformation. The drug concentrations were measured before and after a 12-h incubation by liquid-chromatography-coupled mass spectrometry (LC–MS)
Type: ADME
Parameters: dose 2 uM, timepoint 0 vs 12 hours
Conditions: 2 µM

| Structure (SMILES) | Bacterial Biotransformation |
| --- | --- |
| CN(C)C(=O)C(CCN1CCC(O)(c2ccc(Cl)cc2)CC1)(c1ccccc1)c1ccccc1 [LOPERAMIDE] | Compound NOT metabolized |

Experiment: The drug is tested on Clostridium sp. strain: fecal isolate for biotransformation. The drug concentrations were measured before and after a 12-h incubation by liquid-chromatography-coupled mass spectrometry (LC–MS)
Conditions: 2 µM

| Structure (SMILES) | Bacterial Biotransformation |
| --- | --- |
| CCCCC(=O)O[C@]1(C(=O)CO)[C@@H](C)C[C@H]2[C@@H]3CCC4=CC(=O)C=C[C@]4(C)[C@@]3(F)[C@@H](O)C[C@@]21C [BETAMETHASONE VALERATE] | Compound metabolized |
| CN(C)C(=O)C(CCN1CCC(O)(c2ccc(Cl)cc2)CC1)(c1ccccc1)c1ccccc1 [LOPERAMIDE] | Compound metabolized |

Experiment: The drug is tested on Clostridium ramosum strain: DSM1402 for biotransformation. The drug concentrations were measured before and after a 12-h incubation by liquid-chromatography-coupled mass spectrometry (LC–MS)
Conditions: thomasclavelia ramosa, 2 µM

| Structure (SMILES) | Bacterial Biotransformation |
| --- | --- |
| CCCCC(=O)O[C@]1(C(=O)CO)[C@@H](C)C[C@H]2[C@@H]3CCC4=CC(=O)C=C[C@]4(C)[C@@]3(F)[C@@H](O)C[C@@]21C [BETAMETHASONE VALERATE] | Compound NOT metabolized |
| CN(C)C(=O)C(CCN1CCC(O)(c2ccc(Cl)cc2)CC1)(c1ccccc1)c1ccccc1 [LOPERAMIDE] | Compound NOT metabolized |

Experiment: The drug is tested on Eubacterium rectale strain: ATCC33656 for biotransformation. The drug concentrations were measured before and after a 12-h incubation by liquid-chromatography-coupled mass spectrometry (LC–MS)
Conditions: agathobacter rectalis, 2 µM

| Structure (SMILES) | Bacterial Biotransformation |
| --- | --- |
| CCCCC(=O)O[C@]1(C(=O)CO)[C@@H](C)C[C@H]2[C@@H]3CCC4=CC(=O)C=C[C@]4(C)[C@@]3(F)[C@@H](O)C[C@@]21C [BETAMETHASONE VALERATE] | Compound NOT metabolized |
| CN(C)C(=O)C(CCN1CCC(O)(c2ccc(Cl)cc2)CC1)(c1ccccc1)c1ccccc1 [LOPERAMIDE] | Compound NOT metabolized |

Experiment: The drug is tested on Ruminococcus lactaris strain: ATCC29176 for biotransformation. The drug concentrations were measured before and after a 12-h incubation by liquid-chromatography-coupled mass spectrometry (LC–MS)
Conditions: 2 µM

| Structure (SMILES) | Bacterial Biotransformation |
| --- | --- |
| CCCCC(=O)O[C@]1(C(=O)CO)[C@@H](C)C[C@H]2[C@@H]3CCC4=CC(=O)C=C[C@]4(C)[C@@]3(F)[C@@H](O)C[C@@]21C [BETAMETHASONE VALERATE] | Compound NOT metabolized |
| CN(C)C(=O)C(CCN1CCC(O)(c2ccc(Cl)cc2)CC1)(c1ccccc1)c1ccccc1 [LOPERAMIDE] | Compound NOT metabolized |

Experiment: The drug is tested on Edwardsiella tarda strain: ATCC23685 for biotransformation. The drug concentrations were measured before and after a 12-h incubation by liquid-chromatography-coupled mass spectrometry (LC–MS)
Conditions: 2 µM

| Structure (SMILES) | Bacterial Biotransformation |
| --- | --- |
| CCCCC(=O)O[C@]1(C(=O)CO)[C@@H](C)C[C@H]2[C@@H]3CCC4=CC(=O)C=C[C@]4(C)[C@@]3(F)[C@@H](O)C[C@@]21C [BETAMETHASONE VALERATE] | Compound NOT metabolized |
| CN(C)C(=O)C(CCN1CCC(O)(c2ccc(Cl)cc2)CC1)(c1ccccc1)c1ccccc1 [LOPERAMIDE] | Compound NOT metabolized |

Experiment: The drug is tested on Providencia stuartii strain: ATCC25827 for biotransformation. The drug concentrations were measured before and after a 12-h incubation by liquid-chromatography-coupled mass spectrometry (LC–MS)
Conditions: 2 µM

| Structure (SMILES) | Bacterial Biotransformation |
| --- | --- |
| CCCCC(=O)O[C@]1(C(=O)CO)[C@@H](C)C[C@H]2[C@@H]3CCC4=CC(=O)C=C[C@]4(C)[C@@]3(F)[C@@H](O)C[C@@]21C [BETAMETHASONE VALERATE] | Compound NOT metabolized |
| CN(C)C(=O)C(CCN1CCC(O)(c2ccc(Cl)cc2)CC1)(c1ccccc1)c1ccccc1 [LOPERAMIDE] | Compound NOT metabolized |

Conditions: bacteroides fragilis, 12 h, 2 µM
Description: The drug is tested on Bacteroides fragilis strain: 3397 (T10) for biotransformation. The drug concentrations were measured before and after a 12-h incubation by liquid-chromatography-coupled mass spectrometry (LC–MS)

| Structure (SMILES) | Bacterial Biotransformation |
| --- | --- |
| CN(C)C(=O)C(CCN1CCC(O)(c2ccc(Cl)cc2)CC1)(c1ccccc1)c1ccccc1 [LOPERAMIDE] | Compound metabolized |

Conditions: bacteroides fragilis, 12 h, 2 µM
Remark: another data set of the same source
Description: The drug is tested on Bacteroides fragilis strain: DS-208 for biotransformation. The drug concentrations were measured before and after a 12-h incubation by liquid-chromatography-coupled mass spectrometry (LC–MS)

| Structure (SMILES) | Bacterial Biotransformation |
| --- | --- |
| CCCCC(=O)O[C@]1(C(=O)CO)[C@@H](C)C[C@H]2[C@@H]3CCC4=CC(=O)C=C[C@]4(C)[C@@]3(F)[C@@H](O)C[C@@]21C [BETAMETHASONE VALERATE] | Compound metabolized |

Conditions: bacteroides thetaiotaomicron, 12 h, 2 µM
Description: The drug is tested on Bacteroides thetaiotaomicron strain: 3731 for biotransformation. The drug concentrations were measured before and after a 12-h incubation by liquid-chromatography-coupled mass spectrometry (LC–MS)

| Structure (SMILES) | Bacterial Biotransformation |
| --- | --- |
| CCCCC(=O)O[C@]1(C(=O)CO)[C@@H](C)C[C@H]2[C@@H]3CCC4=CC(=O)C=C[C@]4(C)[C@@]3(F)[C@@H](O)C[C@@]21C [BETAMETHASONE VALERATE] | Compound metabolized |
| CN(C)C(=O)C(CCN1CCC(O)(c2ccc(Cl)cc2)CC1)(c1ccccc1)c1ccccc1 [LOPERAMIDE] | Compound NOT metabolized |

Conditions: parabacteroides johnsonii, 12 h, 2 µM
Description: The drug is tested on Parabacteroides johnsonii strain: DSM18315 for biotransformation. The drug concentrations were measured before and after a 12-h incubation by liquid-chromatography-coupled mass spectrometry (LC–MS)

| Structure (SMILES) | Bacterial Biotransformation |
| --- | --- |
| CCCCC(=O)O[C@]1(C(=O)CO)[C@@H](C)C[C@H]2[C@@H]3CCC4=CC(=O)C=C[C@]4(C)[C@@]3(F)[C@@H](O)C[C@@]21C [BETAMETHASONE VALERATE] | Compound metabolized |

Conditions: roseburia intestinalis, 12 h, 2 µM
Description: The drug is tested on Roseburia intestinalis strain: L1-82 for biotransformation. The drug concentrations were measured before and after a 12-h incubation by liquid-chromatography-coupled mass spectrometry (LC–MS)

| Structure (SMILES) | Bacterial Biotransformation |
| --- | --- |
| CCCCC(=O)O[C@]1(C(=O)CO)[C@@H](C)C[C@H]2[C@@H]3CCC4=CC(=O)C=C[C@]4(C)[C@@]3(F)[C@@H](O)C[C@@]21C [BETAMETHASONE VALERATE] | Compound NOT metabolized |
| CN(C)C(=O)C(CCN1CCC(O)(c2ccc(Cl)cc2)CC1)(c1ccccc1)c1ccccc1 [LOPERAMIDE] | Compound metabolized |
